In ChEMBL document CHEMBL4706522, “Automated design and optimization of multitarget schizophrenia drug candidates by deep learning” (Eur J Med Chem, 2020):

What was measured:
Mus musculus = assay: Antipsychotic activity in ICR mouse assessed as reduction of PCP induced hyperactivity at 3 mg/kg, ig pretreated with compound for 30 mins followed by PCP challenge for 10 mins and measured after 60 mins; assay type: functional; conditions: po, 1.667 h, time 100 min
[1] = target: T1, 5-hydroxytryptamine receptor 1A (Homo sapiens, UniProt P08908); assay: Agonist activity at 5-HT1A receptor (unknown origin) preincubated for 60 mins followed by addition of Eu-cAMP and measured after 60 mins by plate reader method; assay type: functional
T1 sequence (P08908 whole entry): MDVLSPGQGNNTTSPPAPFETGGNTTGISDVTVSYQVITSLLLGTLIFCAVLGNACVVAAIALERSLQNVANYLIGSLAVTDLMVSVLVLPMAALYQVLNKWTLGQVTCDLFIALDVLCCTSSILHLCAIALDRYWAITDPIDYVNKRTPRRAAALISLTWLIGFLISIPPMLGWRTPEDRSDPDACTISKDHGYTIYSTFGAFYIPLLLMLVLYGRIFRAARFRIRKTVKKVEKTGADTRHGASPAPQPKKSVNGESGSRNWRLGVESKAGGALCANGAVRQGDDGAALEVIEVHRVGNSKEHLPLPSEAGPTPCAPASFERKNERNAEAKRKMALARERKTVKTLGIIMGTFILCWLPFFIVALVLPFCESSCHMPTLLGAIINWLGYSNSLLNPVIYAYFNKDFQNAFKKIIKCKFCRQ

[2] = target: 5-hydroxytryptamine receptor 2A (Homo sapiens, UniProt P28223); assay: Antagonist activity at 5-HT2A receptor (unknown origin) assessed as decrease in intracellular calcium flux preincubated with calcium followed by compound challenge and measured after 10 mins by FLIPR method; assay type: functional, cell-based
Sequence of 5-hydroxytryptamine receptor 2A (P28223 whole entry): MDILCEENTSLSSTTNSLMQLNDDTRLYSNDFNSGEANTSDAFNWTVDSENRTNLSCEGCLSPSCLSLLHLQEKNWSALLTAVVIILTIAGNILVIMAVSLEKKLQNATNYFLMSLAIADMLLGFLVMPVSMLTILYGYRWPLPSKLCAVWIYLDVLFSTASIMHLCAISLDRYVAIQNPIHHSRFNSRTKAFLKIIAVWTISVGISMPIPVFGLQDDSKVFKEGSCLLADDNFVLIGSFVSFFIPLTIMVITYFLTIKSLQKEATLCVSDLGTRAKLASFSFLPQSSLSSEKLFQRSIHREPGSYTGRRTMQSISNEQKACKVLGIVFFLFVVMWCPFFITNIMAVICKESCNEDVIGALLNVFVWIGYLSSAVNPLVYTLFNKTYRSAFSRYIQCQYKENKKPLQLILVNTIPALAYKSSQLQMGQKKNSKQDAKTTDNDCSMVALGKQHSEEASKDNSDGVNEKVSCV

D(2) dopamine receptor = D(2) dopamine receptor (Homo sapiens, UniProt P14416); assay: Antagonist activity at D2 receptor (unknown origin) preincubated for 60 mins followed by addition of Eu-cAMP and measured after 60 mins by plate reader method; assay type: functional
Sequence of D(2) dopamine receptor (P14416 whole entry): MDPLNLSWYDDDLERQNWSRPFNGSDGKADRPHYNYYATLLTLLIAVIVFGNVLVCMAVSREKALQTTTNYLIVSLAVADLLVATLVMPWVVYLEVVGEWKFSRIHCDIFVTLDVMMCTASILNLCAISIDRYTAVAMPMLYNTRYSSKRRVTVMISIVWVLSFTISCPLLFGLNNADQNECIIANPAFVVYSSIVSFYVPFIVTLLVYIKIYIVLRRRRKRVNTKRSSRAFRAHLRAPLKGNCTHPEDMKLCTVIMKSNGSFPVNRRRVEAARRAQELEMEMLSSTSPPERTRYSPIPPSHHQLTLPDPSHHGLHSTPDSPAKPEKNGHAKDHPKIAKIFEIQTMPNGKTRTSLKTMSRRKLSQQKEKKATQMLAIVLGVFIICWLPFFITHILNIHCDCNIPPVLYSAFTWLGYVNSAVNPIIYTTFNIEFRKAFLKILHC

[3] = Toxicity in ICR mouse assessed as induction of sedation by measuring spontaneous locomotor activity at 0.3 to 3 mg/kg, po measured for 30 mins following drug administration; assay type: organism-based; conditions: in vivo, 0.5 h, dose 0.3-3 mg/kg
[4] = Toxicity in ICR mouse assessed as induction of catalepsy at 1 mg/kg, po; assay type: organism-based; conditions: in vivo

SMILES | EC50 ([1]; read-out: EC50) | IC50 ([2]; read-out: IC50) | EC50 ([1]; read-out: pEC50 (converted)) | IC50 ([2]; read-out: pIC50 (converted)) | IC50 (D(2) dopamine receptor) | inhibition in vivo at 3 mg/kg (Mus musculus) | Activity [3] | Activity [4]
COc1ccc2ncc(=O)n(CCCCN3CCN(c4cccc5sccc45)CC3)c2c1 |  |  | 0.00269 µM | 0.0209 µM |  |  |  | 
Nc1ccc2c(c1)N(CCCCN1CCN(c3cccc4sccc34)CC1)S(=O)(=O)CC2 |  |  | 0.000794 µM | 0.00282 µM | 0.0676 µM | 48% |  | 
O=S1(=O)CCc2ccc(O)cc2N1CCCCN1CCN(c2cccc3sccc23)CC1 |  |  | 0.00112 µM | 0.0186 µM | 0.02 µM | 13% |  | 
O=C1CCc2ccc(OCCCCN3CCN(c4cccc(Cl)c4Cl)CC3)cc2N1 [ARIPIPRAZOLE] |  |  |  |  |  | 54% |  | 

More lines, main results first:

EC50 ([1]; read-out: EC50) | IC50 ([2]; read-out: IC50) | EC50 ([1]; read-out: pEC50 (converted)) | IC50 ([2]; read-out: pIC50 (converted)) | IC50 (D(2) dopamine receptor) | SMILES | inhibition in vivo at 3 mg/kg (Mus musculus) | Activity [3] | Activity [4]
0.00051 µM | 0.00164 µM |  |  |  | O=C1COc2ccccc2N1CCCCN1CCN(c2cccc3sccc23)CC1 | 39% |  | 
 |  | 0.00407 µM | 0.0245 µM | 0.0347 µM | O=C1NCC(=O)N(CCCCN2CCN(c3cccc4sccc34)CC2)c2cc(F)ccc21 | 43% |  | 
 |  | 0.011 µM | 0.0427 µM | 0.123 µM | CN1CC(=O)N(CCCCN2CCN(c3cccc4sccc34)CC2)c2ccccc2C1=O | 15% |  | 
 |  | 0.00339 µM | 0.129 µM |  | O=c1[nH]c(=O)n(CCCCN2CCN(c3cccc4sccc34)CC2)c2ccccc12 |  | Non-Toxic | Non-Toxic
